Assays:
barnyardgrass [1] = assay: Test A pre-/postemergence herbicide test; assay type: in vivo, Echinochloa crus-galli
Outline: (§1)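 Directed soil spray to seeded pots (preemergence) or spray onto one- to two-leaf seedlings 2–10 cm tall (postemergence); loam/sand substrate throughout. Evaluated visually after about 10 days against untreated plants, 0 = no effect, 100 = complete control.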

crabgrass, large = assay: Test A pre-/postemergence herbicide test; assay type: in vivo, Digitaria sanguinalis
Outline: as §1

giant foxtail = assay: Test A pre-/postemergence herbicide test; assay type: in vivo, Setaria faberii
Outline: as §1

morningglory = assay: Test A pre-/postemergence herbicide test; assay type: in vivo, Ipomoea spp.
Outline: as §1

pigweed = assay: Test A pre-/postemergence herbicide test; assay type: in vivo, Amaranthus retroflexus
Outline: as §1

velvetleaf = assay: Test A pre-/postemergence herbicide test; assay type: in vivo, Abutilon theophrasti
Outline: as §1

wheat = assay: Test A pre-/postemergence herbicide test; assay type: in vivo, Triticum aestivum
Outline: as §1

corn = assay: Test A pre-/postemergence herbicide test; assay type: in vivo, Zea mays
Outline: as §1

rice = assay: Test B flooded paddy test; assay type: in vivo, Oryza sativa; details: 1000 g ai/ha, Flood; scale of 0 to 100 where 0 is no effect and 100 is complete control
Outline: (§2)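 Scoring: visual, compared with untreated controls, 0 = no effect through 100 = complete control, taken 13 to 15 days after treatment in the greenhouse. Compounds had been added to paddy water over soil flooded 3 cm deep at the plants' 2-leaf stage.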

sedge, umbrella = assay: Test B flooded paddy test; assay type: in vivo, Cyperus difformis; details: 1000 g ai/ha, Flood; scale of 0 to 100 where 0 is no effect and 100 is complete control
Outline: as §2

ducksalad = assay: Test B flooded paddy test; assay type: in vivo, Heteranthera limosa; details: 1000 g ai/ha, Flood; scale of 0 to 100 where 0 is no effect and 100 is complete control
Outline: as §2

barnyardgrass [2] = assay: Test B flooded paddy test; assay type: in vivo, Echinochloa crus-galli; details: 1000 g ai/ha, Flood; scale of 0 to 100 where 0 is no effect and 100 is complete control
Outline: as §2

[3] = Postemergence, 1000 g ai/ha, 0 to 100 scale (0 no effect, 100 complete control)
[4] = preemergence, 1000 g ai/ha, 0 to 100 scale (0 no effect, 100 complete control)
[5] = preemergence, 1000 g ai/ha, 0 to 100 scale
[6] = 125 g ai/ha, visual rating, 0 to 100 scale, 0 no effect, 100 complete control, approximately 10 days, preemergence
[7] = Postemergence, 125 g ai/ha, 0 to 100 scale, 0 no effect, 100 complete control
[8] = Postemergence, 500 g ai/ha, 0 to 100 scale (0 no effect, 100 complete control)
[9] = preemergence, 500 g ai/ha, 0 to 100 scale (0 no effect, 100 complete control)
[10] = preemergence, 500 g ai/ha, 0 to 100 scale

O=C1NCC(c2ccc(F)c(F)c2)C1C(=O)Nc1cccc(F)c1Cl (racemic) [Compound 108]
0: Plant response rating, Morningglory (morningglory; [5]) | Plant response rating, Pigweed (pigweed; [3]) | Plant response rating, Pigweed (pigweed; [5]) | Plant response rating, Velvetleaf (velvetleaf; [5]) | Plant response rating, Wheat (wheat; [3]) | Plant response rating, Wheat (wheat; [5]) | Plant response rating, Corn (corn; [3]) | Plant response rating, Corn (corn; [5]) | Plant response rating, Rice (rice) | Plant response rating, Sedge, Umbrella (sedge, umbrella)
50: Plant response rating, Barnyardgrass (barnyardgrass [2])
80: Plant response rating, Foxtail, Giant (giant foxtail; [3])
10: Plant response rating, Morningglory (morningglory; [3]) | Plant response rating, Velvetleaf (velvetleaf; [3])
95: Plant response rating, Ducksalad (ducksalad)
90: Plant response rating, Barnyardgrass (barnyardgrass [1]; [3]) | Plant response rating, Barnyardgrass (barnyardgrass [1]; [4]) | Plant response rating, Crabgrass, Large (crabgrass, large; [3]) | Plant response rating, Crabgrass, Large (crabgrass, large; [5]) | Plant response rating, Foxtail, Giant (giant foxtail; [5])

O=C1NCC(c2ccc3ccccc3c2)C1C(=O)Nc1ccccc1F (racemic) [Compound 115]
20: Plant response rating, Foxtail, Giant (giant foxtail; [6]) | Plant response rating, Foxtail, Giant (giant foxtail; [10]) | Plant response rating, Barnyardgrass (barnyardgrass [2])
90: Plant response rating, Ducksalad (ducksalad)
10: Plant response rating, Barnyardgrass (barnyardgrass [1]; [7]) | Foxtail, Giant plant response rating (0 to 100 scale, 0 is no effect, 100 is complete control) (giant foxtail; Postemergence, 500 g ai/ha)
80: Plant response rating, Crabgrass, Large (crabgrass, large; [10])
50: Plant response rating, Barnyardgrass (barnyardgrass [1]; [8]) | Plant response rating, Barnyardgrass (barnyardgrass [1]; [9]) | Crabgrass, Large plant response rating (0 to 100 scale, 0 is no effect, 100 is complete control) (crabgrass, large; Postemergence, 500 g ai/ha)
70: Plant response rating, Crabgrass, Large (crabgrass, large; [6])
0: Plant response rating, Barnyardgrass (barnyardgrass [1]; [6]) | Plant response rating, Crabgrass, Large (crabgrass, large; [7]) | Plant response rating, Foxtail, Giant (giant foxtail; [7]) | Plant response rating, Morningglory (morningglory; [6]) | Plant response rating, Morningglory (morningglory; [7]) | Morningglory plant response rating (0 to 100 scale, 0 is no effect, 100 is complete control) (morningglory; Postemergence, 500 g ai/ha) | Plant response rating, Morningglory (morningglory; [10]) | Plant response rating, Pigweed (pigweed; [6]) | Plant response rating, Pigweed (pigweed; [7]) | Pigweed plant response rating (0 to 100 scale, 0 is no effect, 100 is complete control) (pigweed; Postemergence, 500 g ai/ha) | Plant response rating, Pigweed (pigweed; [10]) | Plant response rating, Velvetleaf (velvetleaf; [6]) | Plant response rating, Velvetleaf (velvetleaf; [7]) | Velvetleaf plant response rating (0 to 100 scale, 0 is no effect, 100 is complete control) (velvetleaf; Postemergence, 500 g ai/ha) | Plant response rating, Velvetleaf (velvetleaf; [10]) | Plant response rating, Wheat (wheat; [6]) | Plant response rating, Wheat (wheat; [7]) | Wheat plant response rating (0 to 100 scale, 0 is no effect, 100 is complete control) (wheat; Postemergence, 500 g ai/ha) | Plant response rating, Wheat (wheat; [10]) | Plant response rating, Corn (corn; [6]) | Plant response rating, Corn (corn; [7]) | Plant response rating, Corn (corn; [8]) | Plant response rating, Corn (corn; [10]) | Plant response rating, Rice (rice) | Plant response rating, Sedge, Umbrella (sedge, umbrella)

O=C1NCC(c2ccc3ccccc3c2)C1C(=O)Nc1cccc(F)c1F (racemic) [Compound 116]
50: Plant response rating, Barnyardgrass (barnyardgrass [1]; [9])
15: Plant response rating, Rice (rice)
40: Plant response rating, Barnyardgrass (barnyardgrass [1]; [8])
0: Plant response rating, Barnyardgrass (barnyardgrass [1]; [6]) | Plant response rating, Foxtail, Giant (giant foxtail; [6]) | Plant response rating, Foxtail, Giant (giant foxtail; [7]) | Plant response rating, Morningglory (morningglory; [6]) | Plant response rating, Morningglory (morningglory; [7]) | Morningglory plant response rating (0 to 100 scale, 0 is no effect, 100 is complete control) (morningglory; Postemergence, 500 g ai/ha) | Plant response rating, Morningglory (morningglory; [10]) | Plant response rating, Pigweed (pigweed; [6]) | Plant response rating, Pigweed (pigweed; [7]) | Pigweed plant response rating (0 to 100 scale, 0 is no effect, 100 is complete control) (pigweed; Postemergence, 500 g ai/ha) | Plant response rating, Pigweed (pigweed; [10]) | Plant response rating, Velvetleaf (velvetleaf; [6]) | Plant response rating, Velvetleaf (velvetleaf; [7]) | Velvetleaf plant response rating (0 to 100 scale, 0 is no effect, 100 is complete control) (velvetleaf; Postemergence, 500 g ai/ha) | Plant response rating, Velvetleaf (velvetleaf; [10]) | Plant response rating, Wheat (wheat; [6]) | Plant response rating, Wheat (wheat; [7]) | Wheat plant response rating (0 to 100 scale, 0 is no effect, 100 is complete control) (wheat; Postemergence, 500 g ai/ha) | Plant response rating, Wheat (wheat; [10]) | Plant response rating, Corn (corn; [6]) | Plant response rating, Corn (corn; [7]) | Plant response rating, Corn (corn; [10]) | Plant response rating, Sedge, Umbrella (sedge, umbrella)
20: Plant response rating, Crabgrass, Large (crabgrass, large; [7]) | Foxtail, Giant plant response rating (0 to 100 scale, 0 is no effect, 100 is complete control) (giant foxtail; Postemergence, 500 g ai/ha) | Plant response rating, Corn (corn; [8]) | Plant response rating, Barnyardgrass (barnyardgrass [2])
80: Plant response rating, Crabgrass, Large (crabgrass, large; [10]) | Plant response rating, Ducksalad (ducksalad)
30: Crabgrass, Large plant response rating (0 to 100 scale, 0 is no effect, 100 is complete control) (crabgrass, large; Postemergence, 500 g ai/ha) | Plant response rating, Foxtail, Giant (giant foxtail; [10])
70: Plant response rating, Crabgrass, Large (crabgrass, large; [6])

O=C1NCC(c2ccc3ccccc3c2)C1C(=O)Nc1ccccc1C(F)(F)F (racemic) [Compound 117]
0: Plant response rating, Barnyardgrass (barnyardgrass [1]; [6]) | Plant response rating, Barnyardgrass (barnyardgrass [1]; [7]) | Plant response rating, Morningglory (morningglory; [6]) | Plant response rating, Morningglory (morningglory; [7]) | Morningglory plant response rating (0 to 100 scale, 0 is no effect, 100 is complete control) (morningglory; Postemergence, 500 g ai/ha) | Plant response rating, Morningglory (morningglory; [10]) | Plant response rating, Pigweed (pigweed; [6]) | Plant response rating, Pigweed (pigweed; [7]) | Pigweed plant response rating (0 to 100 scale, 0 is no effect, 100 is complete control) (pigweed; Postemergence, 500 g ai/ha) | Plant response rating, Pigweed (pigweed; [10]) | Plant response rating, Velvetleaf (velvetleaf; [6]) | Plant response rating, Velvetleaf (velvetleaf; [7]) | Velvetleaf plant response rating (0 to 100 scale, 0 is no effect, 100 is complete control) (velvetleaf; Postemergence, 500 g ai/ha) | Plant response rating, Velvetleaf (velvetleaf; [10]) | Plant response rating, Wheat (wheat; [6]) | Plant response rating, Wheat (wheat; [7]) | Wheat plant response rating (0 to 100 scale, 0 is no effect, 100 is complete control) (wheat; Postemergence, 500 g ai/ha) | Plant response rating, Wheat (wheat; [10]) | Plant response rating, Corn (corn; [6]) | Plant response rating, Corn (corn; [7]) | Plant response rating, Corn (corn; [10]) | Plant response rating, Rice (rice) | Plant response rating, Sedge, Umbrella (sedge, umbrella)
80: Plant response rating, Crabgrass, Large (crabgrass, large; [10])
50: Foxtail, Giant plant response rating (0 to 100 scale, 0 is no effect, 100 is complete control) (giant foxtail; Postemergence, 500 g ai/ha)
70: Plant response rating, Foxtail, Giant (giant foxtail; [10])
30: Plant response rating, Barnyardgrass (barnyardgrass [1]; [8]) | Plant response rating, Crabgrass, Large (crabgrass, large; [7])
90: Plant response rating, Ducksalad (ducksalad)
60: Plant response rating, Crabgrass, Large (crabgrass, large; [6]) | Crabgrass, Large plant response rating (0 to 100 scale, 0 is no effect, 100 is complete control) (crabgrass, large; Postemergence, 500 g ai/ha)
40: Plant response rating, Barnyardgrass (barnyardgrass [2])
20: Plant response rating, Barnyardgrass (barnyardgrass [1]; [9]) | Plant response rating, Foxtail, Giant (giant foxtail; [6]) | Plant response rating, Foxtail, Giant (giant foxtail; [7]) | Plant response rating, Corn (corn; [8])

O=C1NCC(c2ccc(F)c(F)c2)C1C(=O)Nc1ccc(F)cc1 (racemic) [Compound 193]
80: Plant response rating, Barnyardgrass (barnyardgrass [1]; [4]) | Plant response rating, Foxtail, Giant (giant foxtail; [3])
90: Plant response rating, Barnyardgrass (barnyardgrass [1]; [3]) | Plant response rating, Crabgrass, Large (crabgrass, large; [3]) | Plant response rating, Foxtail, Giant (giant foxtail; [5])
20: Plant response rating, Rice (rice) | Plant response rating, Sedge, Umbrella (sedge, umbrella)
0: Plant response rating, Morningglory (morningglory; [3]) | Plant response rating, Morningglory (morningglory; [5]) | Plant response rating, Pigweed (pigweed; [3]) | Plant response rating, Pigweed (pigweed; [5]) | Plant response rating, Velvetleaf (velvetleaf; [3]) | Plant response rating, Velvetleaf (velvetleaf; [5]) | Plant response rating, Wheat (wheat; [3]) | Plant response rating, Wheat (wheat; [5]) | Plant response rating, Corn (corn; [3]) | Plant response rating, Corn (corn; [5]) | Plant response rating, Barnyardgrass (barnyardgrass [2])
60: Plant response rating, Ducksalad (ducksalad)
100: Plant response rating, Crabgrass, Large (crabgrass, large; [5])
